For twelve compounds, IC50 results are on record in US20260242419A1, “A CYCLIC PEPTIDE FOR TRAPPING INTERLEUKIN-1 BETA” (Merck Sharp & Dohme LLC, priority 2023, published 2026).

As a reminder, the IC50 is the concentration that inhibits the measured activity by half.

Starred links: 1 amine or outer side, 2 acyl side, 3 side chain; linkers in the order of their positions; H or OH if unused. Non-standard residues stand in square brackets, D forms with d. Residues, ends and D or L forms follow the SMILES beside them. Phe(4-(trans-4-COOH-cHex)) = N[C@@H](Cc1ccc([C@H]2CC[C@H](C(=O)O)CC2)cc1)C(=O)O; Phe(4-(cis-4-COOH-cHex)) = N[C@@H](Cc1ccc([C@H]2CC[C@@H](C(=O)O)CC2)cc1)C(=O)O; Phe(4-(5-CO2H-2-pyrimidyl)) = N[C@@H](Cc1ccc(-c2ncc(C(=O)O)cn2)cc1)C(=O)O; Trp(βS-Me,4-F) = C[C@@H](c1c[nH]c2cccc(F)c12)[C@H](N)C(=O)O; 3Aminoazetidine3carboxyl = O=C(C1(N[*:1])CN([*:3])C1)[*:2]; Bip(4'-COOH) = N[C@@H](Cc1ccc(-c2ccc(C(=O)O)cc2)cc1)C(=O)O; Ala(1-bicyclo(1.1.1)pentyl) = N[C@@H](CC12CC(C1)C2)C(=O)O; dPro(4R-Bzl(4-F)) = O=C(O)[C@H]1C[C@@H](Cc2ccc(F)cc2)CN1; X14 = O=C([C@H]1[C@@H](Cc2ccccc2)CCN1[*:1])[*:2]; X9 = O=C([C@H]1[C@@H](Cc2cncnc2)CCN1[*:1])[*:2]; Ala(pyrimidin-5-yl) = N[C@@H](Cc1cncnc1)C(=O)O; Phe(4-COOH) = N[C@@H](Cc1ccc(C(=O)O)cc1)C(=O)O; Pro(cis-4-F) = O=C(O)[C@@H]1C[C@H](F)CN1; AEF = NCCOc1ccc(C[C@H](N)C(=O)O)cc1; 2Pal = N[C@@H](Cc1ccccn1)C(=O)O; 3Pal = N[C@@H](Cc1cccnc1)C(=O)O; 4Pal = N[C@@H](Cc1ccncc1)C(=O)O; αMeK = C[C@](N)(CCCCN)C(=O)O; Api = NC1(C(=O)O)CCNCC1; Dab = NCC[C@H](N)C(=O)O; Aib = CC(C)(N)C(=O)O

For the experiment, the target named is T1, IL-1β (Homo sapiens, UniProt P01584).
T1 construct: purchased BioLegend 579404
The experiment is described as follows: IL-6 assay in MRC5 cells: inhibition of IL-1β induced IL-6 secretion (AlphaLISA). In kind it is cell-based. The settings on record: inhibition of IL-1β induced IL-6 secretion in MRC5 cells; read-out: MRC5 IC50. The gist of the method: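 Compound was pre-incubated 1 h at ambient temperature with recombinant human IL-1β at 2λ EC80 before adding human lung fibroblast MRC5 cells (3000/well) in EMEM with 0.025% BSA. After overnight culture at 37 °C, 5% CO2, secreted IL-6 in conditioned medium was measured by AlphaLISA; IC50 from 4-parameter logistic fits.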
(In general: In Alpha technology, singlet oxygen from a donor bead excites a nearby acceptor bead.)

T1 sequence (P01584 117-269): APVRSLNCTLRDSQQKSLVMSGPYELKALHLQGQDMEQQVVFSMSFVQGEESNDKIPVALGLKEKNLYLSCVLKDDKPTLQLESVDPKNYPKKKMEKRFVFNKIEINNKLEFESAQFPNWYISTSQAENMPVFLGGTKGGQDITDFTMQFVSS

Consider `C[C@@H](c1c[nH]c2cccc(F)c12)[C@@H]1NC(=O)[C@@H]2C[C@H](F)CN2C(=O)CNC(=O)[C@H](Cc2ccc(C(=O)O)cc2)NC(=O)[C@H](Cc2ccncc2)NC(=O)[C@H](Cc2ccc(-c3ccc(C(=O)O)cc3)cc2)NC(=O)[C@H]2C[C@@H](Cc3ccc(F)cc3)CN2C(=O)CNC(=O)[C@H](CCN)NC(=O)[C@H](CCC(N)=O)NC(=O)[C@H](Cc2cncnc2)NC(=O)C2(CCNCC2)NC(=O)[C@H](Cc2c[nH]c3ccccc23)NC(=O)[C@H](CCC(=O)O)NC(=O)C(C)(C)NC1=O` [Example 65] (cyclo([Bip(4'-COOH)][4Pal][Phe(4-COOH)]G[Pro(cis-4-F)][Trp(βS-Me,4-F)][Aib]EW[Api][Ala(pyrimidin-5-yl)]Q[Dab]G[dPro(4R-Bzl(4-F))])), for which the IC50 worked out at 0.025 nM.

On to `C[C@@H](c1c[nH]c2cccc(F)c12)[C@@H]1NC(=O)[C@@H]2C[C@H](F)CN2C(=O)CNC(=O)[C@H](Cc2ccc(C(=O)O)cc2)NC(=O)[C@H](Cc2ccncc2)NC(=O)[C@H](Cc2ccc(-c3ccc(C(=O)O)cc3)cc2)NC(=O)[C@H]2C[C@@H](Cc3ccc(F)cc3)CN2C(=O)CNC(=O)[C@H](CCN)NC(=O)[C@H](CCC(N)=O)NC(=O)[C@H](Cc2cncnc2)NC(=O)C(C)(C)NC(=O)[C@H](Cc2c[nH]c3ccccc23)NC(=O)[C@H](CCC(=O)O)NC(=O)[C@](C)(CCCCN)NC1=O` [Example 66] (cyclo([Bip(4'-COOH)][4Pal][Phe(4-COOH)]G[Pro(cis-4-F)][Trp(βS-Me,4-F)][αMeK]EW[Aib][Ala(pyrimidin-5-yl)]Q[Dab]G[dPro(4R-Bzl(4-F))])), for which the concentration for half-maximal inhibition (IC50) was 0.028 nM.

For `C[C@@H](c1c[nH]c2cccc(F)c12)[C@@H]1NC(=O)[C@@H]2C[C@H](F)CN2C(=O)CNC(=O)[C@H](Cc2ccc(C(=O)O)cc2)NC(=O)[C@H](Cc2ccncc2)NC(=O)[C@H](Cc2ccc(-c3ccc(C(=O)O)cc3)cc2)NC(=O)[C@H]2C[C@@H](Cc3ccc(F)cc3)CN2C(=O)CNC(=O)[C@H](CCN)NC(=O)[C@H](CCC(N)=O)NC(=O)[C@H](Cc2cncnc2)NC(=O)[C@](C)(CCCCN)NC(=O)[C@H](Cc2c[nH]c3ccccc23)NC(=O)[C@H](CCC(=O)O)NC(=O)C(C)(C)NC1=O` [Example 67] (cyclo([4Pal][Phe(4-COOH)]G[Pro(cis-4-F)][Trp(βS-Me,4-F)][Aib]EW[αMeK][Ala(pyrimidin-5-yl)]Q[Dab]G[dPro(4R-Bzl(4-F))][Bip(4'-COOH)])), the IC50 amounted to 0.021 nM.

Take `C[C@@H](c1c[nH]c2cccc(F)c12)[C@@H]1NC(=O)[C@@H]2C[C@H](F)CN2C(=O)CNC(=O)[C@H](Cc2ccc(C(=O)O)cc2)NC(=O)[C@H](Cc2ccncc2)NC(=O)[C@H](Cc2ccc([C@H]3CC[C@H](C(=O)O)CC3)cc2)NC(=O)[C@H]2C[C@@H](Cc3ccc(F)cc3)CN2C(=O)CNC(=O)[C@H](CCN)NC(=O)[C@H](CCC(N)=O)NC(=O)[C@H](Cc2cncnc2)NC(=O)C2(CNC2)NC(=O)[C@H](Cc2c[nH]c3ccccc23)NC(=O)[C@H](CCC(=O)O)NC(=O)C(C)(C)NC1=O` [Example 68] (cyclo([Phe(4-(trans-4-COOH-cHex))][4Pal][Phe(4-COOH)]G[Pro(cis-4-F)][Trp(βS-Me,4-F)][Aib]EW[3Aminoazetidine3carboxyl][Ala(pyrimidin-5-yl)]Q[Dab]G[dPro(4R-Bzl(4-F))])): the IC50 stood at 0.029 nM.

For `C[C@@H](c1c[nH]c2cccc(F)c12)[C@@H]1NC(=O)[C@@H]2C[C@H](F)CN2C(=O)CNC(=O)[C@H](Cc2ccc(C(=O)O)cc2)NC(=O)[C@H](Cc2ccncc2)NC(=O)[C@H](Cc2ccc([C@H]3CC[C@@H](C(=O)O)CC3)cc2)NC(=O)[C@H]2C[C@@H](Cc3ccc(F)cc3)CN2C(=O)CNC(=O)[C@H](CCN)NC(=O)[C@H](CCC(N)=O)NC(=O)[C@H](Cc2cncnc2)NC(=O)C2(CNC2)NC(=O)[C@H](Cc2c[nH]c3ccccc23)NC(=O)[C@H](CCC(=O)O)NC(=O)C(C)(C)NC1=O` [Example 69] (cyclo([Phe(4-(cis-4-COOH-cHex))][4Pal][Phe(4-COOH)]G[Pro(cis-4-F)][Trp(βS-Me,4-F)][Aib]EW[3Aminoazetidine3carboxyl][Ala(pyrimidin-5-yl)]Q[Dab]G[dPro(4R-Bzl(4-F))])), the IC50 is 0.03 nM.

As to `C[C@@H](c1c[nH]c2cccc(F)c12)[C@@H]1NC(=O)[C@@H]2C[C@H](F)CN2C(=O)CNC(=O)[C@H](Cc2ccc(C(=O)O)cc2)NC(=O)[C@H](Cc2ccncc2)NC(=O)[C@H](Cc2ccc(-c3ccc(C(=O)O)cc3)cc2)NC(=O)[C@H]2[C@@H](Cc3cncnc3)CCN2C(=O)CNC(=O)[C@H](CCN)NC(=O)[C@H](CCC(N)=O)NC(=O)[C@H](Cc2cncnc2)NC(=O)C(C)(C)NC(=O)[C@H](Cc2c[nH]c3ccccc23)NC(=O)[C@H](CCC(=O)O)NC(=O)C(C)(C)NC1=O` [Example 71] (cyclo([Bip(4'-COOH)][4Pal][Phe(4-COOH)]G[Pro(cis-4-F)][Trp(βS-Me,4-F)][Aib]EW[Aib][Ala(pyrimidin-5-yl)]Q[Dab]G[X9])), the concentration for half-maximal inhibition (IC50) was determined as 0.058 nM.

As for `C[C@@H](c1c[nH]c2cccc(F)c12)[C@@H]1NC(=O)[C@@H]2C[C@H](F)CN2C(=O)CNC(=O)[C@H](Cc2ccc(C(=O)O)cc2)NC(=O)[C@H](Cc2ccncc2)NC(=O)[C@H](Cc2ccc(-c3ccc(C(=O)O)cc3)cc2)NC(=O)[C@H]2C[C@@H](Cc3ccc(F)cc3)CN2C(=O)CNC(=O)[C@H](CCN)NC(=O)[C@H](CCC(N)=O)NC(=O)[C@H](Cc2cccnc2)NC(=O)C(C)(C)NC(=O)[C@H](Cc2c[nH]c3ccccc23)NC(=O)[C@H](CCC(=O)O)NC(=O)C(C)(C)NC1=O` [Example 72] (cyclo([3Pal]Q[Dab]G[dPro(4R-Bzl(4-F))][Bip(4'-COOH)][4Pal][Phe(4-COOH)]G[Pro(cis-4-F)][Trp(βS-Me,4-F)][Aib]EW[Aib])), the IC50 is 0.027 nM.

Consider `C[C@@H](c1c[nH]c2cccc(F)c12)[C@@H]1NC(=O)[C@@H]2C[C@H](F)CN2C(=O)CNC(=O)[C@H](Cc2ccc(C(=O)O)cc2)NC(=O)[C@H](Cc2ccncc2)NC(=O)[C@H](Cc2ccc(-c3ccc(C(=O)O)cc3)cc2)NC(=O)[C@H]2C[C@@H](Cc3ccc(F)cc3)CN2C(=O)CNC(=O)[C@H](CCN)NC(=O)[C@H](CCC(N)=O)NC(=O)[C@H](Cc2ccccn2)NC(=O)C(C)(C)NC(=O)[C@H](Cc2c[nH]c3ccccc23)NC(=O)[C@H](CCC(=O)O)NC(=O)C(C)(C)NC1=O` [Example 73] (cyclo([Bip(4'-COOH)][4Pal][Phe(4-COOH)]G[Pro(cis-4-F)][Trp(βS-Me,4-F)][Aib]EW[Aib][2Pal]Q[Dab]G[dPro(4R-Bzl(4-F))])), for which the IC50 was found to be 0.031 nM.

As to `C[C@@H](c1c[nH]c2cccc(F)c12)[C@@H]1NC(=O)[C@@H]2C[C@H](F)CN2C(=O)CNC(=O)[C@H](Cc2ccc(C(=O)O)cc2)NC(=O)[C@H](Cc2ccncc2)NC(=O)[C@H](Cc2ccc(-c3ccc(C(=O)O)cc3)cc2)NC(=O)[C@H]2C[C@@H](Cc3ccc(F)cc3)CN2C(=O)CNC(=O)[C@H](CCCNC(=N)N)NC(=O)[C@H](CCC(N)=O)NC(=O)[C@H](Cc2ccncc2)NC(=O)C(C)(C)NC(=O)[C@H](Cc2c[nH]c3ccccc23)NC(=O)[C@H](CCC(=O)O)NC(=O)C(C)(C)NC1=O` [Example 76] (cyclo([Bip(4'-COOH)][4Pal][Phe(4-COOH)]G[Pro(cis-4-F)][Trp(βS-Me,4-F)][Aib]EW[Aib][4Pal]QRG[dPro(4R-Bzl(4-F))])), the half-maximal inhibitory concentration (IC50) came to 0.059 nM.

Turning to `CC(=O)NCCOc1ccc(C[C@@H]2NC(=O)[C@H]3[C@@H](Cc4ccccc4)CCN3C(=O)CNC(=O)[C@H](CCN)NC(=O)[C@H](CCC(N)=O)NC(=O)[C@H](Cc3cncnc3)NC(=O)C(C)(C)NC(=O)[C@H](Cc3c[nH]c4ccccc34)NC(=O)[C@H](CCC(=O)O)NC(=O)C(C)(C)NC(=O)[C@H]([C@@H](C)c3c[nH]c4cccc(F)c34)NC(=O)[C@@H]3C[C@H](F)CN3C(=O)CNC(=O)[C@H](Cc3ccc(C(=O)O)cc3)NC(=O)[C@H](Cc3ccncc3)NC2=O)cc1` [Example 78] (cyclo([AEF](Ac)[4Pal][Phe(4-COOH)]G[Pro(cis-4-F)][Trp(βS-Me,4-F)][Aib]EW[Aib][Ala(pyrimidin-5-yl)]Q[Dab]G[X14])), the IC50 is 0.036 nM.

In the case of `C[C@@H](c1c[nH]c2cccc(F)c12)[C@@H]1NC(=O)[C@@H]2C[C@H](F)CN2C(=O)CNC(=O)[C@H](Cc2ccc(C(=O)O)cc2)NC(=O)[C@H](Cc2ccncc2)NC(=O)[C@H](Cc2ccc(-c3ncc(C(=O)O)cn3)cc2)NC(=O)[C@H]2C[C@@H](Cc3ccc(F)cc3)CN2C(=O)CNC(=O)[C@H](CCN)NC(=O)[C@H](CCC(N)=O)NC(=O)[C@H](Cc2ccncc2)NC(=O)C2(CNC2)NC(=O)[C@H](Cc2c[nH]c3ccccc23)NC(=O)[C@H](CCC(=O)O)NC(=O)C(C)(C)NC1=O` [Example 81] (cyclo([Phe(4-(5-CO2H-2-pyrimidyl))][4Pal][Phe(4-COOH)]G[Pro(cis-4-F)][Trp(βS-Me,4-F)][Aib]EW[3Aminoazetidine3carboxyl][4Pal]Q[Dab]G[dPro(4R-Bzl(4-F))])), the IC50 amounted to 0.049 nM.

In the case of `C[C@@H](c1c[nH]c2cccc(F)c12)[C@@H]1NC(=O)[C@@H]2C[C@H](F)CN2C(=O)CNC(=O)[C@H](Cc2ccc(C(=O)O)cc2)NC(=O)[C@H](CC23CC(C2)C3)NC(=O)[C@H](Cc2ccc(-c3ncc(C(=O)O)cn3)cc2)NC(=O)[C@H]2C[C@@H](Cc3ccc(F)cc3)CN2C(=O)CNC(=O)[C@H](CCN)NC(=O)[C@H](CCC(N)=O)NC(=O)[C@H](Cc2cncnc2)NC(=O)C(C)(C)NC(=O)[C@H](Cc2c[nH]c3ccccc23)NC(=O)[C@H](CCC(=O)O)NC(=O)C(C)(C)NC1=O` [Example 82] (cyclo([Phe(4-(5-CO2H-2-pyrimidyl))][Ala(1-bicyclo(1.1.1)pentyl)][Phe(4-COOH)]G[Pro(cis-4-F)][Trp(βS-Me,4-F)][Aib]EW[Aib][Ala(pyrimidin-5-yl)]Q[Dab]G[dPro(4R-Bzl(4-F))])), the IC50 worked out at 0.054 nM.
